Experiment [1] has as its target Carbonic anhydrase 1 (Homo sapiens, UniProt P00915). Kind of experiment: Esterase Assay. The conditions noted are these: pH 7.4. How it is done:
(§1) CA activity was assayed by following the change in absorbance at 348 nm of 4-nitrophenylacetate (NPA) to 4-nitrophenylate ion over a period of 3 min at 25°Cusing a spectrophotometer (CHEBIOS UV-VIS) according to the method described by Verpoorte et al. [Verpoorte et al., J. Biol. Chem., 242:4221-4229] The enzymatic reaction contained 1.4 mL 0.05 M Tris-SO4 buffer (pH 7.4), 1 mL 3 mM 4-NPA, 0.5 mL H2O and 0.1 mL enzyme solution (total volume, 3.0 mL). A reference measurement was obtained by preparing the mixture without the enzyme solution. All measurements were made in triplicate. The Ki values were determined from a series of experiments using three different bromophenols concentrations and 4-NPA as the substrate at five different concentrations to construct Lineweaver-Burk curves [Lineweaver et al., J. Am. Chem. Soc., 57:685-693].

The target of experiment [2] is Carbonic anhydrase 2 (Homo sapiens, UniProt P00918). Kind of experiment: Esterase Assay. The conditions noted are these: pH 7.4. Here is the method:
as §1

Molecules are shown by their SMILES.

Sequence of Carbonic anhydrase 1 (P00915 whole entry): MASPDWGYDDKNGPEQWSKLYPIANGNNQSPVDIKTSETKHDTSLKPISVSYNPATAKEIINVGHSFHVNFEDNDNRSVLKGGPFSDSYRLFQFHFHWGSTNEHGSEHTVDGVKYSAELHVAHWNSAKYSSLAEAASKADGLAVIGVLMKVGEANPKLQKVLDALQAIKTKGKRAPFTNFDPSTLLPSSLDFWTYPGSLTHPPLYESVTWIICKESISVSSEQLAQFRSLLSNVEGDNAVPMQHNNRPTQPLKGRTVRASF

Usually IC50 stands for the point on the concentration scale where inhibition reaches its midpoint. By Ki is commonly meant the equilibrium dissociation constant of an inhibitor or competing ligand from its target. Consider `Oc1cc(Br)c(Cc2cc(Br)c(O)c(O)c2O)cc1O` [Carbonic anhydrase isoenzymes inhibitor, 16], for which the figures for the IC50 in experiment [1] and in experiment [2] were 4.28 µM and 63.6 µM, respectively. In experiment [1], this compound yielded a Ki of 2.59 µM.
Take `Oc1ccc(Cc2ccc(O)c(O)c2O)cc1O` [Carbonic anhydrase isoenzymes inhibitor, 15]: in experiment [1], the IC50 was found to be 54.3 µM and the Ki amounted to 8.36 µM. In experiment [2], this compound had an IC50 of 79.4 µM and a Ki of 42.5 µM.
`O=C(c1ccc(O)c(O)c1)c1ccc(O)c(O)c1O` [Carbonic anhydrase isoenzymes inhibitor, 5]: the IC50 in experiment [1] was 27.8 µM; in experiment [2] it was 142 µM. Further, the Ki in experiment [1] came to 32.5 µM; in experiment [2] it was 23 µM.
Taken in the same sequence, the figures for `O=C(c1ccc(O)c(O)c1)c1cc(Br)c(O)c(O)c1O` [Carbonic anhydrase isoenzymes inhibitor, 13] were 6.92 µM, 18.5 µM, 6.77 µM and 3.25 µM.
Consider `O=C(c1cc(O)c(O)cc1Br)c1cc(Br)c(O)c(O)c1O` [Carbonic anhydrase isoenzymes inhibitor, 14], for which the IC50 in experiment [1] worked out at 3.22 µM; in experiment [2] it was 24.5 µM. Further, the Ki in experiment [1] stood at 1.19 µM; in experiment [2], 28.6 µM.
